From patent publication US20220346377A1, “NOVEL COMPOSITIONS” (DSM IP ASSETS B.V., priority 2019, published 2022)

Experiments:
Format in all cases: cell-based
[1] = tested on: Candida albicans; experiment: Antimicrobial efficacy in analogy to challenge test (NF EN ISO11930), Candida albicans
Protocol: The antimicrobial efficacy was assessed in analogy to the regulatory challenge test method (NF EN ISO11930). Thus, mixtures of the respective active(s) with physiological serum with 0.85 wt.-% NaCl in the concentrations as outlined below are prepared under sterile conditions. Controls were also prepared under sterile conditions. The control as well as the mixtures were then deposed in 96-deep well plates (1.6 ml/well). […] After the contamination, each well was thoroughly mixed to ensure a homogeneous distribution of microbes. Then each plate was incubated at 22° C. for 24 h. The counting of the (remaining) population is carried out 24 h after contamination. Then, the average log reduction is calculated [−log 10{(value inoculum)/(value sample)}] which is represented in tables 1-5.

[2] = tested on: Aspergillus brasiliensis; experiment: Antimicrobial efficacy in analogy to challenge test (NF EN ISO11930), Aspergillus brasiliensis; details: 0.3 wt.-% DBO
Protocol: (§1) The antimicrobial efficacy was assessed in analogy to the regulatory challenge test method (NF EN ISO11930). Thus, mixtures of the respective active(s) with physiological serum with 0.85 wt.-% NaCl in the concentrations as outlined below are prepared under sterile conditions. Controls were also prepared under sterile conditions. The control as well as the mixtures were then deposed in 96-deep well plates (1.6 ml/well). The wells were contaminated with the respective bacterial or the fungal strains at 2.5*10^5 to 5.6*10^5 cfu/ml for the bacteria and 1*10^4 to 2.5*10^4 cfu/ml for the fungi to obtain the initial contamination as outlined below. After the contamination, each well was thoroughly mixed to ensure a homogeneous distribution of microbes. Then each plate was incubated at 22° C. for 24 h. The counting of the (remaining) population is carried out 24 h after contamination. Then, the average log reduction is calculated [−log 10{(value inoculum)/(value sample)}] which is represented in tables 1-5.

[3] = tested on: Staphylococcus aureus; experiment: Antimicrobial efficacy in analogy to challenge test (NF EN ISO11930), Staphylococcus aureus
Protocol: as §1

[4] = tested on: Escherichia coli; experiment: Antimicrobial efficacy in analogy to challenge test (NF EN ISO11930), Escherichia coli; details: 0.2 wt.-% Sodium Benzoate
Protocol: as §1

c1ccc2oc(-c3ccc(-c4nc5ccccc5o4)cc3)nc2c1 [DBO, 1,4-di(benzoxazol-2′-yl)benzene]
Log reduction ([1]; 0.3 wt.-% DBO, 24 h after contamination): −0.51 | colony count 24 h ([1]; 0.3 wt.-% DBO, inoculum 32000 cfu/ml, 22° C., 24 h, physiological serum 0.85 wt.-% NaCl): 10000 cfu/ml | Log reduction ([2]; 24 h after contamination): −2.05 | colony count 24 h ([2]; inoculum 45000 cfu/ml, 22° C., 24 h): 400 cfu/ml | synergistic effect on antimicrobial activity ([3]; DBO with p-Hydroxyacetophenone, conclusion from Table 3): synergistically enhances the antimicrobial activity of p-Hydroxyacetophenone

CC(=O)c1ccc(O)cc1 [HAP, p-Hydroxyacetophenone]
colony count 24 h ([3]; 0.3 wt.-% HAP, inoculum 550000 cfu/ml, 24 h): 70000 cfu/ml

OCCCO [PDO, 1,3-propanediol]
Log reduction ([1]; 1.0 wt.-% PDO, 24 h): −0.24 | colony count 24 h ([1]; 1.0 wt.-% PDO, inoculum 70000 cfu/ml, 24 h): 40000 cfu/ml

O=C([O-])c1ccccc1.[Na+] [Sodium Benzoate, sodium benzoate]
colony count 24 h ([4]; inoculum 400000 cfu/ml): 1000000 cfu/ml | Log reduction ([4]; 24 h): +0.40
